Assay results from patent US20250230472A1, “EXTRACTION OF ALKANOIC ACIDS” (priority 2018, published 2025).

Assay: Distribution coefficient of carboxylic acids, water / 20% TAPO in Fragoltherm, two-phase co-culture
Assay type: physicochemical
Details: water and 20% TAPO in Fragoltherm, pH 6.6, after 67 h cultivation at 37° C.
Protocol: The bacterium Clostridium kluyveri was cultivated in a co culture with Clostridium autoethanogenum for the biotransformation of ethanol and acetate to medium chain fatty acids. For the inSitu extraction of the produced acids the aqueous phase was overlayed with a mixture of Fragoltherm Q-32-N with trialkylphosphineoxide (TAPO). All cultivation steps were carried out under anaerobic conditions, the preculture in a stainless steel bubble column loop reactor and the main culture in a pressure-resistant glass bottle that can be closed airtight with a butyl rubber stopper.
The aqueous phase was then overlayed with 20 ml anaerobisized extracting agent (20% trialkylphosphineoxid (TAPO) in Fragoltherm Q-32-N). The bottle with the two-layer phases was then cultivated at 37° C., 150 rpm and with a gas atmosphere of 10% H2 and 90% N2 in an open water bath shaker for 67 h. The gas atmosphere in the bottle was flushed once a day for 10 min with pure N2.
During cultivation several 5 mL samples from both, the aqueous and the organic phase, were taken to determinate OD600 nm, pH and product formation. The determination of the product concentrations in the aqueous phase was performed by semiquantitative 1H-NMR spectroscopy and high performance liquid chromatography (HPLC) and in the organic phase by semiquantitative 1H-NMR spectroscopy and gas chromatography (GC). […]

SMILES	distribution coefficient K(D)
CCCCCC(=O)O [hexanoic acid]	4.33
CCCCCCCC(=O)O [octanoic acid]	108
